Patent publication US11453697B1, “Cyclic di-nucleotide compounds as sting agonists” (Merck Sharp & Dohme Corp., priority 2015, dated 2022)
Where two headings read alike, the source gives them in different places.

How the values were obtained:
full-length HAQ STING = full-length HAQ STING (Homo sapiens (Human), UniProt Q86WV6, G230A/H232R/R293Q/R71H); assay: 3H-cGAMP filtration binding assay (HAQ STING); conditions: competition with tritiated cGAMP, HAQ STING membrane
Description: The ability of compounds to bind STING is quantified by the ability to compete with tritiated cGAMP ligand for human STING receptor membrane using a radioactive filter-binding assay. The binding assay employs STING receptor obtained from Hi-Five cell membranes overexpressing full-length HAQ STING prepared in-house and tritiated cGAMP ligand also purified in-house.
The ability of compounds to bind STING is quantified by their ability to compete with tritiated cGAMP ligand for human STING receptor membrane using a radioactive filter-binding assay.
The basic HAQ STING filtration assay protocol is as follows:
Compound and membrane then preincubated for 60 min at RT to allow compound binding to equilibrate. Following equilibration, 8 nM of [^3H] c-GAMP ligand was prepared by diluting into assay buffer, and 50 uL of this working stock was then manually added to each well of the assay plate. […] The filter plates were then dried at 55° C. for 30 min using a pressurized VWR oven before 30 uL of Ultima GoldF scintillate was added to each well. Tritium levels for each reaction well were then measured using a PerkinElmer TopCount plate reader.
After normalization to controls, the percent activity for each compound concentration was calculated by measuring the amount of remaining radioactivity. The plot of percent activity versus the log of compound concentration was fit with a 4-parameter dose response equation to calculate EC50 values.

[1] = system: IFN-β secretion in THP1 cells; assay: IFN-β secretion in THP1 cell culture (5 h); type: cell-based, human
In short: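 THP1 cells incubated with compound for 5 h at 37 °C, 5% CO2, and secreted IFN-β in supernatant quantified by AlphaLISA. Percent effect normalised to 30 uM cGAMP positive control and 0.3% DMSO. EC50 from 4-parameter fit.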

[2] = read-out: EC50 (nM), 3H-cGAMP filtration binding assay for HAQ STING
[3] = IFN-β secretion in THP1 cell culture, 5 h, compound at 30 μM, percent activation relative to 2′3′-cGAMP

Chain of full-length HAQ STING (Q86WV6 other isoform, or with tags, fused parts or gaps, stated change not applied): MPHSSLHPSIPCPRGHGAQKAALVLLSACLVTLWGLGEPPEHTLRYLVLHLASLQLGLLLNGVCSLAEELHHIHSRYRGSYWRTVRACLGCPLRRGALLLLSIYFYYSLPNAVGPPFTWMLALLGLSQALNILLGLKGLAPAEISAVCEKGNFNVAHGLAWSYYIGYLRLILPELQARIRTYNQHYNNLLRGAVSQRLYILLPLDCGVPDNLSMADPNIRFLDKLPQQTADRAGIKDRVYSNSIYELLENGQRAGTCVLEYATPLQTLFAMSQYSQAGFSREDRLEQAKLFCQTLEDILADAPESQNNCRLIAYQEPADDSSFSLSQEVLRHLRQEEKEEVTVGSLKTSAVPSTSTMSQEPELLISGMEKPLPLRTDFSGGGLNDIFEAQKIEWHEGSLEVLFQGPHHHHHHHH

SMILES	EC50 (full-length HAQ STING; [2]) [nM]	% Effect at 30 μM relative to 2′3′-cGAMP [1, 3] [%]	% Effect at 30 μM relative to 2′3′-cGAMP [1] [%]	EC50 (full-length HAQ STING; EC50 (nM), 3H-cGAMP filtration binding assay for HAQ STING) [nM]
Nc1nc2c(ncn2[C@@H]2O[C@@H]3COP(=O)(O)O[C@H]4[C@@H](O)[C@H](n5cc(F)c6c(N)ncnc65)O[C@@H]4COP(=O)(O)O[C@@H]2[C@@H]3O)c(=O)[nH]1 [Example 33, 2-amino-9-[(5R,7R,8R,12aR,14R,15R,15aS,16R)-14-(4-amino-5-fluoro-7H-pyrrolo[2,3-d]pyrimidin-7-yl)-2,10,15,16-tetrahydroxy-2,10-dioxidooctahydro-12H-5,8-methanofuro[3,2-l][1,3,6,9,11,2,10]pentaoxadiphosphacyclotetradecin-7-yl]-1,9-dihydro-6H-purin-6-one]	11.9	200		
O=c1[nH]cnc2c1ncn2[C@@H]1O[C@@H]2COP(=O)(O)O[C@@H]3C[C@@H](COP(=O)(O)O[C@H]2[C@H]1O)O[C@H]3n1cnc2c(=O)[nH]cnc21 [Example 333]	45.9	10		
Nc1ncnc2c1ncn2[C@@H]1O[C@@H]2COP(=O)(O)O[C@@H]3C[C@@H](COP(=O)(O)O[C@H]2[C@H]1O)O[C@H]3n1cnc2c(=O)[nH]cnc21 [Example 50, 9-[(5S,7R,8R,12aR,14R,15R,15aS)-14-(6-amino-9H-purin-9-yl)-2,10,15-trihydroxy-2,10-dioxidooctahydro-12H-5,8-methanofuro[3,2-l][1,3,6,9,11,2,10]pentaoxadiphosphacyclotetradecin-7-yl]-1,9-dihydro-6H-purin-6-one]	2.7	85		
Nc1nc2c(ncn2[C@@H]2O[C@@H]3COP(O)(=S)O[C@H]4[C@H](F)[C@H](n5cnc6c(=O)[nH]cnc65)O[C@@H]4COP(=O)(O)O[C@@H]2[C@@H]3F)c(=O)[nH]1 (stereo partly drawn) [Example 303, 2-amino-9-[(5R,7R,8S,12aR,14R,15S,15aR,16R)-15,16-difluoro-2,10-dihydroxy-10-oxido-14-(6-oxo-1,6-dihydro-9H-purin-9-yl)-2-sulfidooctahydro-12H-5,8-methanofuro[3,2-l][1,3,6,9,11,2,10]pentaoxadiphosphacyclotetradecin-7-yl]-1,9-dihydro-6H-purin-6-one]	< 1		106	
Nc1nc2c(ncn2[C@@H]2O[C@@H]3COP(=O)(S)O[C@H]4[C@H](F)[C@H](n5cnc6c(=O)[nH]cnc65)O[C@@H]4COP(=O)(S)O[C@@H]2C3)c(=O)[nH]1 (single isomer, unassigned) [Example 317]	< 1	107		
Nc1nc2c(ncn2[C@@H]2O[C@@H]3COP(O)(=S)O[C@H]4C[C@H](n5cnc6c(=O)[nH]cnc65)O[C@@H]4COP(O)(=S)O[C@@H]2[C@@H]3F)c(=O)[nH]1 (single isomer, unassigned) [Example 306]			153	3.6

Further molecules by falling EC50 (full-length HAQ STING; [2]), results first:

EC50 (full-length HAQ STING; [2]) [nM]	SMILES	% Effect at 30 μM relative to 2′3′-cGAMP [1, 3] [%]	% Effect at 30 μM relative to 2′3′-cGAMP [1] [%]	EC50 (full-length HAQ STING; EC50 (nM), 3H-cGAMP filtration binding assay for HAQ STING) [nM]
378	Nc1nc2c(ncn2[C@@H]2O[C@@H]3COP(=O)(O)O[C@H]4[C@H](Cl)[C@H](n5cnc6c(N)ncnc65)O[C@@H]4COP(=O)(O)O[C@@H]2[C@@H]3O)c(=O)[nH]1 [Example 15, 2-amino-9-[(5R,7R,8R,12aR,14R,15S,15aR,16R)-14-(6-amino-9H-purin-9-yl)-15-chloro-2,10,16-trihydroxy-2,10-dioxidooctahydro-12H-5,8-methanofuro[3,2-l][1,3,6,9,11,2,10]pentaoxadiphosphacyclotetradecin-7-yl]-1,9-dihydro-6H-purin-6-one]	39		
112	Nc1nc2c(ncn2[C@@H]2O[C@@H]3COP(=O)(O)OC4C(O)[C@H](c5cnn6c(=O)[nH]cnc56)O[C@@H]4COP(=O)(O)OC2C3O)c(=O)[nH]1 (stereo in doubt) [Example 321, 8-[(5R,7R,8R,12aR,14S,15S,15aS,16R)-7-(2-amino-6-oxo-1,6-dihydro-9H-purin-9-yl)-2,10,15,16-tetrahydroxy-2,10-dioxidooctahydro-12H-5,8-methanofuro[3,2-l][1,3,6,9,11,2,10]pentaoxadiphosphacyclotetradecin-14-yl]pyrazolo[1,5-a][1,3,5]triazin-4(3H)-one]	36		
94	CNc1ncnc2c1ncn2[C@@H]1O[C@@H]2COP(=O)(O)O[C@@H]3[C@H](O)[C@@H](COP(=O)(O)O[C@H]2[C@H]1O)O[C@H]3n1cnc2c(=O)[nH]c(N)nc21 [Example 31, 2-amino-9-{(5R,7R,8R,12aR,14R,15R,15aS,16R)-2,10,15,16-tetrahydroxy-14-[6-(methylamino)-9H-purin-9-yl]-2,10-dioxidooctahydro-12H-5,8-methanofuro [3,2-l][1,3,6,9,11,2,10]pentaoxadiphosphacyclotetradecin-7-yl}-1,9-dihydro-6H-purin-6-one]	100		
75.4	NC(=O)c1ncnc2c1ncn2[C@@H]1O[C@@H]2COP(=O)(O)O[C@@H]3[C@H](O)[C@@H](COP(=O)(O)O[C@H]2[C@H]1O)O[C@H]3n1cnc2c(=O)[nH]c(N)nc21 [Example 76, 9-[(5R,7R,8R,12aR,14R,15R,15aS,16R)-7-(2-amino-6-oxo-1,6-dihydro-9H-purin-9-yl)-2,10,15,16-tetrahydroxy-2,10-dioxidooctahydro-12H-5,8-methanofuro[3,2-l][1,3,6,9,11,2,10]pentaoxadiphosphacyclotetradecin-14-yl]-9H-purine-6-carboxamide]	39		
12.4	C[C@H]1OP(=O)(O)O[C@@H]2C[C@@H](COP(=O)(O)O[C@H]3[C@@H](O)[C@H](n4cnc5c(N)ncnc54)O[C@@H]31)O[C@H]2n1cnc2c(=O)[nH]c(N)nc21 [Example 16, 2-amino-9-[(5S,7R,8R,12R,12aR,14R,15R,15aS)-14-(6-amino-9H-purin-9-yl)-2,10,15-trihydroxy-12-methyl-2,10-dioxidooctahydro-12H-5,8-methanofuro[3,2-l][1,3,6,9,11,2,10]pentaoxadiphosphacyclotetradecin-7-yl]-1,9-dihydro-6H-purin-6-one]	57		
8.2	Nc1nc2c(ncn2[C@@H]2O[C@@H]3COP(=O)(O)O[C@H]4C[C@H](n5cnc6c(=O)[nH]cnc65)O[C@@H]4COP(=O)(O)O[C@@H]2[C@@H]3F)c(=O)[nH]1 [Example 332, 2-amino-9-[(5R,7R,8S,12aR,14R,15aS,16R)-16-fluoro-2,10-dihydroxy-2,10-dioxido-14-(6-oxo-1,6-dihydro-9H-purin-9-yl)octahydro-12H-5,8-methanofuro[3,2-l][1,3,6,9,11,2,10]pentaoxadiphosphacy-clotetradecin-7-yl]-1,9-dihydro-6H-purin-6-one]	113		
7.3	Nc1nc2c(ncn2[C@@H]2S[C@@H]3COP(=O)(O)O[C@H]4[C@@H](O)[C@H](n5cnc6c(=O)[nH]cnc65)O[C@@H]4COP(=O)(O)O[C@@H]2[C@@H]3O)c(=O)[nH]1 [Example 319, 2-amino-9-[(5R,7R,8R,12aR,14R,15R,15aS,16S)-2,10,15,16-tetrahydroxy-2,10-dioxido-14-(6-oxo-1,6-dihydro-9H-purin-9-yl)octahydro-12H-5,8-methanofuro[3,2-l][1,3,6,9,11,6,2,10]tetraoxathiadiphosphacyclotetradecin-7-yl]-1,9-dihydro-6H-purin-6-one]	143		
3.1	Nc1ncnc2c1ncn2[C@@H]1O[C@@H]2COP(=O)(O)O[C@@H]3[C@H](O)[C@@H](COP(=O)(O)O[C@H]2[C@H]1O)O[C@H]3n1cnc2c(=O)[nH]ccc21 [Example 58, 1-[(5R,7R,8R,12aR,14R,15R,15aS,16R)-14-(6-amino-9H-purin-9-yl)-2,10,15,16-tetrahydroxy-2,10-dioxidooctahydro-12H-5,8-methanofuro[3,2-l][1,3,6,9,11,2,10]pentaoxadiphosphacyclotetradecin-7-yl]-1,5-dihydro-4H-imidazo[4,5-c]pyridin-4-one]	92		
2.5	Nc1nc2c(ncn2[C@@H]2O[C@@H]3CO[P@@](=O)(S)O[C@H]4[C@@H](O)[C@H](n5cnc6c(=O)[nH]cnc65)O[C@@H]4CO[P@@](=O)(S)O[C@@H]2C3)c(=O)[nH]1 [Example 290, 2-amino-9-[(2R,5S,7R,8R,10R,12aR,14R,15R,15aS)-15-hydroxy-2,10-dioxido-14-(6-oxo-1,6-dihydro-9H-purin-9-yl)-2,10-disulfanyloctahydro-12H-5,8-methanofuro[3,2-l][1,3,6,9,11,2,10]pentaoxadiphosphacyclotetradecin-7-yl]-1,9-dihydro-6H-purin-6-one]	90		
